Assay results reported in patent US20090018162A1, “USE OF 6-(3-CHLORO-2-FLUOROBENZYL)-1-[(2S)-1-HYDROXY-3-METHYLBUTAN-2-YL]-7-METHOXY-4-OXO-1,4-DIHYDROQUINOLINE-3-CARBOXYLIC ACID OR SALT THEREOF FOR TREATING RETROVIRUS INFECTION” (priority 2006, published 2009).

Tests used:
[1] = system: recombinant HIV-1 clones (patient protease/RT sequences in HIV-1 NL4-3); assay: microbe, parasite or virus in culture; type: cell-based
human PBMCs = details: 7 days
in vitro = details: human

| Compound | Fold-increase (EC50 fold increase above reference clone NL4-3) ([1]; RT mutation 2-5 TAMs, K65 and/or Q151, N=4, averaged) | Fold-increase (EC50 fold increase above reference clone NL4-3) ([1]; RT mutation 2-5 TAMs, N=16, averaged) | Fold-increase (EC50 fold increase above reference clone NL4-3) ([1]; RT mutation 2-5 TAMs, T69ins, N=4, averaged) | Fold-increase (EC50 fold increase above reference clone NL4-3) ([1]; RT mutation 6 TAMS, M184, N=7, averaged) | Fold-increase (EC50 fold increase above reference clone NL4-3) ([1]; RT mutation 6 TAMs, N=5, averaged) | Fold-increase (EC50 fold increase above reference clone NL4-3) ([1]; RT mutation K65 and/or Q151, M184, N=12, averaged) | Fold-increase (EC50 fold increase above reference clone NL4-3) ([1]; RT mutation K65 and/or Q151, N=7, averaged) | Fold-increase (EC50 fold increase above reference clone NL4-3) ([1]; RT mutation M184, N=12, averaged) | Fold-increase (EC50 fold increase above reference clone NL4-3) ([1]; Wild-type clones, N=8, averaged) | CC50 (human PBMCs) [µM] | CC50 at 7 days (in vitro) [µM] |
| --- | --- | --- | --- | --- | --- | --- | --- | --- | --- | --- | --- |
| C[C@H](Cn1cnc2c(N)ncnc21)OCP(=O)(O)O [TFV, Tenofovir] | 8.5 | 3.5 | 12.2 | 1.6 | 5.0 | 2.2 | 4.0 | 0.6 | 0.8 | – | – |
| enfuvirtide | – | – | – | – | – | – | – | – | – | > 10 | > 10 |
